Results published in patent US11919907B2, “Deuterated JAK inhibitor and uses thereof” (Sun Pharmaceutical Industries, Inc., priority 2020, dated 2024).
Like-named read-outs stand apart in the source and are kept apart here.

Experiments:
[1] = molecular target: T1, kinase domain of human recombinant JAK1 (Homo sapiens, UniProt P23458); assay: JAK enzyme biochemical assay (Eurofins CEREP), JAK1; conditions: ATP at Km, 100 nM substrate peptide, 60 minutes, duplicate
T1 construct: using the kinase domains of human recombinant JAK1, JAK2, JAK3 and TYK2
T1 sequence (P23458 875-1153 limits assumed): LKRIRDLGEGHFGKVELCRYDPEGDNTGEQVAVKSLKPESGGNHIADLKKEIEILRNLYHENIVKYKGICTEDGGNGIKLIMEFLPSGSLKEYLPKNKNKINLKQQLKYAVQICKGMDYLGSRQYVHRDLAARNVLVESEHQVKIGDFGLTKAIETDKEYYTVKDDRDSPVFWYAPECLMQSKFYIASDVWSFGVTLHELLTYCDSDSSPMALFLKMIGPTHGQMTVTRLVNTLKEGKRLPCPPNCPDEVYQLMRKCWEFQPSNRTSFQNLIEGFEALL
Protocol: (§1) JAK enzyme biochemical assays were performed at Eurofins CEREP, France using the kinase domains of human recombinant JAK1, JAK2, JAK3 and TYK2. Each enzyme reaction was carried out with Compound 10 (supplied by Concert Pharmaceuticals) or control, JAK enzyme, 100 nM substrate peptide (LANCE® Ultra U-light JAK-1 peptide) and adenosine triphosphate (ATP; concentration at Km) for 60 minutes. Test compounds were dissolved in DMSO and tested in duplicate. It can be seen that Compound 10 had significant potency for inhibition of JAK enzymes.

[2] = molecular target: T2, kinase domain of human recombinant JAK2 (Homo sapiens, UniProt O60674); assay: JAK enzyme biochemical assay (Eurofins CEREP), JAK2; conditions: ATP at Km, 100 nM substrate peptide, 60 minutes, duplicate
T2 construct: using the kinase domains of human recombinant JAK1, JAK2, JAK3 and TYK2
T2 sequence (O60674 849-1124 limits assumed): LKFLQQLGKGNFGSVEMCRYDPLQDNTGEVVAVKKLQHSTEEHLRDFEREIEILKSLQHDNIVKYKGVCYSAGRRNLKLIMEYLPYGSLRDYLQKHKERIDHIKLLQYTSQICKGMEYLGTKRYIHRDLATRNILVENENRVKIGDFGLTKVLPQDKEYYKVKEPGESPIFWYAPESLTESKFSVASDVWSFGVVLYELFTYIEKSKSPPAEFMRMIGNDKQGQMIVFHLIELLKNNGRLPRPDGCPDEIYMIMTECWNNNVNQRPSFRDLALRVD
Protocol: as §1

[3] = molecular target: T3, kinase domain of human recombinant JAK3 (Homo sapiens, UniProt P52333); assay: JAK enzyme biochemical assay (Eurofins CEREP), JAK3; conditions: ATP at Km, 100 nM substrate peptide, 60 minutes, duplicate
T3 construct: using the kinase domains of human recombinant JAK1, JAK2, JAK3 and TYK2
T3 sequence (P52333 822-1111 limits assumed): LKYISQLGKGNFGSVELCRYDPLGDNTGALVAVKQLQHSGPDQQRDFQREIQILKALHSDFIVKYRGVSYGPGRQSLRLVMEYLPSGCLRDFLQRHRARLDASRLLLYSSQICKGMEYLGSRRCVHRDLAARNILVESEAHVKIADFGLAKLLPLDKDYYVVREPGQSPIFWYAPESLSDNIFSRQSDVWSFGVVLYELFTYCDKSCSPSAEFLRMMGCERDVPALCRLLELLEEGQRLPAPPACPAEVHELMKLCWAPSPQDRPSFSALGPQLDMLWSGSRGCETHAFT
Protocol: as §1

[4] = molecular target: T4, kinase domain of human recombinant TYK2 (Homo sapiens, UniProt P29597); assay: JAK enzyme biochemical assay (Eurofins CEREP), TYK2; conditions: ATP at Km, 100 nM substrate peptide, 60 minutes, duplicate
T4 construct: using the kinase domains of human recombinant JAK1, JAK2, JAK3 and TYK2
T4 sequence (P29597 897-1176 limits assumed): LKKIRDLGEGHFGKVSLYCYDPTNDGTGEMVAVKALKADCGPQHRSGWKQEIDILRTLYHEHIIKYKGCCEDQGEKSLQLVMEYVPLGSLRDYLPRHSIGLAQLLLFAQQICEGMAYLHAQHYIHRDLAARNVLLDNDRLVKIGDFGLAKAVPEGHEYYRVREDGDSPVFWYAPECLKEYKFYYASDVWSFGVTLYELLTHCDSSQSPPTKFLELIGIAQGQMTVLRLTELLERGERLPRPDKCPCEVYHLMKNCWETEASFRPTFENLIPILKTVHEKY
Protocol: as §1

[5] = Metabolic stability using human liver microsomes; format: in vitro ADME; conditions: for half-life at 0.25 μM: human
Protocol: Materials: Human liver microsomes (20 mg/mL) were obtained from Xenotech, LLC (Lenexa, Kans.). β-nicotinamide adenine dinucleotide phosphate, reduced form (NADPH), magnesium chloride (MgCl2), and dimethyl sulfoxide (DMSO) were purchased from Sigma-Aldrich. Compound 10 and non-deuterated Compound 50 as test compounds were supplied by Concert Pharmaceuticals:
Determination of Metabolic Stability: 7.5 mM stock solutions of test compounds were prepared in DMSO. The 7.5 mM stock solutions were diluted to 12.5 μM in acetonitrile (ACN). The human liver microsomes were diluted in 0.1 M potassium phosphate buffer, pH 7.4, containing 3 mM MgCl2. The diluted microsomes were added to wells of a 96-well deep-well polypropylene plate in triplicate. A 10 μL aliquot of the 12.5 μM test compound was added to the microsomes and the mixture was pre-warmed for 10 minutes. Reactions were initiated by addition of pre-warmed NADPH solution. The final reaction volume was 0.5 mL and contained […] human liver microsomes, 0.25 μM test compound, and 2 mM NADPH in 0.1 M potassium phosphate buffer, pH 7.4, and 3 mM MgCl2. The reaction mixtures were incubated at 37° C., and 50 μL aliquots were removed at 0, 10, 20, 30, 45, and 60 minutes and added to shallow-well 96-well plates which contained 50 μL of ice-cold ACN with internal standard to stop the reactions. The plates were stored at 4° C. for 20 minutes after which 100 μL of water was added to the wells of the plate before centrifugation to pellet precipitated proteins. Supernatants were transferred to another 96-well plate and analyzed for amounts of parent remaining by LC-MS/MS using an Applied Bio-systems mass spectrometer.
Data analysis: The in vitro t1/2s for test compounds were calculated from the slopes of the linear regression of % parent remaining (ln) vs incubation time relationship. in vitro t1/2=0.693/k k=−[slope of linear regression of % parent remaining(ln) vs incubation time] Data analysis was performed using Microsoft Excel Software.

[6] = pH 7.4, 5 mg/mL human liver microsomes, 0.25 μM test compound, 2 mM NADPH, 37° C., experiment 2498, read-out: t1/2 EXP# 2498
[7] = pH 7.4, 5 mg/mL human liver microsomes, 0.25 μM test compound, 2 mM NADPH, 37° C., experiment 2500, read-out: t1/2 EXP# 2500
[8] = pH 7.4, 5 mg/mL human liver microsomes, 0.25 μM test compound, 2 mM NADPH, 37° C., experiment 2501, read-out: t1/2 EXP# 2501
[9] = pH 7.4, human liver microsomes, average of EXP# 2498, 2500, 2501, read-out: t1/2 Average

SMILES	IC50 [1] [nM]	IC50 [2] [nM]	IC50 [3] [nM]	IC50 [4] [nM]	Average % diff. in t1/2 (longer half-life than non-deuterated Compound 50) ([5]; Compound 10 versus Compound 50, average t1/2) [%]	half-life at 0.25 μM [5, 6] [h]	half-life at 0.25 μM [5, 7] [h]	half-life at 0.25 μM [5, 8] [h]	half-life at 0.25 μM [5, 9] [h]
[2H]C1([2H])C([C@@H](CC(N)=O)n2cc(-c3ncnc4[nH]ccc34)cn2)C([2H])([2H])C([2H])([2H])C1([2H])[2H] [Compound 10]	63.9	34	226	368	176	1.6	4.5	4.97	3.68
NC(=O)C[C@H](C1CCCC1)n1cc(-c2ncnc3[nH]ccc23)cn1 [Compound 50, reference compound]	–	–	–	–	–	0.822	1.33	1.87	1.33
